PMC9782539, “Synthesis, Characterization and Biological Evaluation of Benzothiazole–Isoquinoline Derivative” (Molecules, 2022)

Key:
AChE = AChE (Homo sapiens, UniProt P22303); assay: biochemical; assay type: biochemical
Procedure: (§1) Each concentration was tested three times in parallel, and 96 empty plates were taken, and 20 µL of the test sample or positive drug (10% DMSO was added to the blank control), 40 µL of AChE or BuChE (0.2 U/mL) and 100 µL of DTNB (0.001 mol/L) were added in turn, mixed well and incubated in a constant temperature water bath at 37 °C for 15 min.

BuChE = BuChE (Homo sapiens, UniProt P06276); assay: biochemical; assay type: biochemical
Chain of BuChE (P06276 29-602): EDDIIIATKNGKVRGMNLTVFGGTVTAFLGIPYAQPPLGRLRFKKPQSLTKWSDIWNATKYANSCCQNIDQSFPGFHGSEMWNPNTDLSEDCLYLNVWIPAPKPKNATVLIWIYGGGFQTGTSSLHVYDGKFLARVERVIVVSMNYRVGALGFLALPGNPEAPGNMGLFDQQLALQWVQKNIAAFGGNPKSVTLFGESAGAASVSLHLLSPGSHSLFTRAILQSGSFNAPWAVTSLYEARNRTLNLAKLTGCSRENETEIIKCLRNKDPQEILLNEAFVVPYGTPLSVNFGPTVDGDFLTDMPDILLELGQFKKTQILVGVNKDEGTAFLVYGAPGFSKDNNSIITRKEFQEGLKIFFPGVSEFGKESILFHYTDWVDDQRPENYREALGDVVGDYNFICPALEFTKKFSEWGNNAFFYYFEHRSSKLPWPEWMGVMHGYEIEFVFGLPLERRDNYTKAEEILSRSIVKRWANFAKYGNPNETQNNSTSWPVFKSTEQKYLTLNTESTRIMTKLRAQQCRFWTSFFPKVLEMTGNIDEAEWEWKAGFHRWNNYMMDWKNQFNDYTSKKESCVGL
Procedure: as §1

MAO = MAO inhibitory activity (Holts method, rat liver mitochondrial enzyme); assay type: biochemical
Procedure: (§2) Male SD rats were sacrificed by decapitation, operated on ice, their livers were removed, and the liver surface was washed with precooled phosphate buffer. The liver was cut into pieces, and after washing (using PBS), 20 mL of 0.3 M sucrose buffer was added for homogenization. After fully homogenized, it was balanced by a tray balance. Low–temperature differential centrifugation was performed, and the obtained SD rat liver mitochondrial concentrate was the experimental monoamine oxidase stock solution, and was stored in a −80 °C refrigerator.
(§3) Added 25 µL of enzyme dilution solution and 25 µL of test derivatives (control group plus rasagiline, blank group plus 10% DMSO) to 96–well plate, incubated at 37 °C for 1 h, then 120 µL of substrate was added, 80 µL of chromogenic solution was added, incubated at 37 °C for 30 min, and its absorbance measured at 490 nm. In addition, in order to exclude the influence of protein, a protein control group was established, only the enzyme dilution was added, and the rest were replaced with PBS, and the absorbance value was detected at a wavelength of 490 nm. The inhibition rate of each concentration was substituted into the calculation software GraphPad Prism 8 to calculate the IC50 value.

MAO–A = target: T1, MAO–A (Rattus norvegicus, UniProt P21396); assay: MAO–A inhibitory activity (enzyme pre-incubated with pargyline); assay type: biochemical
T1 construct: the obtained SD rat liver mitochondrial concentrate was the experimental monoamine oxidase stock solution; from tissue; host or cells: male SD rat liver mitochondria
T1 sequence (P21396 1-526): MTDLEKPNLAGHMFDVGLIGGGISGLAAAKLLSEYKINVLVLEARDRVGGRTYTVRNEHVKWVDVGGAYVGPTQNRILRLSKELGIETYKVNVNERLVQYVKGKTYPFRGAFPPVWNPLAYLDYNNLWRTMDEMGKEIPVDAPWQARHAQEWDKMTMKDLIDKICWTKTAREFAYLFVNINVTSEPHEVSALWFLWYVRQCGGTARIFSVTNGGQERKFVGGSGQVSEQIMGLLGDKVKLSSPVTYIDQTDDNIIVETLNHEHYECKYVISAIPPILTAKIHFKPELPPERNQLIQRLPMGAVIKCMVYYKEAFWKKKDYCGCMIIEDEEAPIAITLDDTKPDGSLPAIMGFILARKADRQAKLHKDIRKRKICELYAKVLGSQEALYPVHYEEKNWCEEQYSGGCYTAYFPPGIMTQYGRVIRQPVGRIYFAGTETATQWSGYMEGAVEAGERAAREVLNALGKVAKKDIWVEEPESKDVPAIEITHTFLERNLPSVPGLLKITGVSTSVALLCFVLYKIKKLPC
Procedure: as §2, §3
(§4) The inhibition rate of each concentration was substituted into the calculation software GraphPad Prism 8 to calculate the IC50 value.

Cytotoxicity, MTT method = assay type: cell-based; settings: mouse, L929 cells, 0–100 μM, read-out: cell viability (MTT)
Procedure: L929 (Shanghai Cell Bank, Chinese Academy of Sciences) cells were cultured in 10% fetal bovine serum: penicillin–streptomycin solution: MEM mixed medium with serum–free medium (10:1:90), and subcultured in a 5% carbon dioxide cell incubator at 37 °C, and the medium changed every other day.
In this experiment, L929 cells in the logarithmic growth phase were selected, and the cell density was adjusted to 2 × 10^4 cells per well. The cells were seeded in 96–well plates, and the 96–well plates seeded with cells were cultured in a 37 °C 5% carbon dioxide cell incubator. After 24 h, different concentrations of the test compound medium (6.5, 12.5, 25, 50, 100 μM) were added, and the blank group was added with drug–free medium, shaken gently, and placed at 37 °C 5%. The cells were cultured in a carbon dioxide cell incubator for 24 h, and each concentration was replicated 6 times. After 24 h, 20 μL of […] MTT solution (prepared in PBS with pH = 7.6) was added in the dark, and cultured in the cell incubator for another 4 h. After 4 h, the 96–well plate was taken out and the original medium was discarded. Added 160 μL DMSO, put it on a shaker and mixed well for about 10 min, used a microplate reader to measure its absorbance at 490 nm, recorded the results and analyzed.

MAO–B = target: T2, MAO–B (Rattus norvegicus, UniProt P19643); assay: MAO–B inhibitory activity (enzyme pre-incubated with chlorgiline); assay type: biochemical
T2 construct: the obtained SD rat liver mitochondrial concentrate was the experimental monoamine oxidase stock solution; from tissue; host or cells: male SD rat liver mitochondria
T2 sequence (P19643 1-520): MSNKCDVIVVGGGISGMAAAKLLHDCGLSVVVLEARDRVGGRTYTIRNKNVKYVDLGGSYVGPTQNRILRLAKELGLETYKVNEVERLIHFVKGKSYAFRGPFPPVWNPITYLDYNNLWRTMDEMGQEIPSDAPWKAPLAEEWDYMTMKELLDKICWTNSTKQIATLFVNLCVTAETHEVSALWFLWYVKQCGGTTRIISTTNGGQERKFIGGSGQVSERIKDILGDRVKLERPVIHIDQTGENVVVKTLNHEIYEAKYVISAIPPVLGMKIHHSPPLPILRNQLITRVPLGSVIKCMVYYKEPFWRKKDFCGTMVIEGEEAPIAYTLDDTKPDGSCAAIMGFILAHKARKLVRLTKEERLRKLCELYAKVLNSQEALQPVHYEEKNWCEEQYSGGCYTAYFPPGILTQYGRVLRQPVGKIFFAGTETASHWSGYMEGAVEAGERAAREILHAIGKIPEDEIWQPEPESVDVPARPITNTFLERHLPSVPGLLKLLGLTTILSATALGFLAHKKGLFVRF
Procedure: as §2, §3, §4

ICR male mice = assay: Forced swimming test (FST); assay type: in vivo; settings: i.p., 30 mg/kg; for Duration of Immobility: 30 min after administration, mean ± SEM (n = 8); for DID (%) percentage decrease in immobility duration: vs control
Procedure: Pharmacological experiments of antidepressant activity used FST in mice, fluoxetine hydrochloride was used as a positive control, and the vehicle solvent PFG–400 was used as a blank control. The experiment used ICR male mice (20 ± 2 g). Six benzothiazole–quinoline derivatives were dissolved in polyethylene glycol–400, and 30 min after administration (i.p., 30 mg/kg), the mice were each placed in a glass cylinder, recording the time of immobility. Duration of immobility outcomes is expressed as mean ± SEM. The t-test was used to make comparisons between groups.

Chain of AChE (P22303 32-614): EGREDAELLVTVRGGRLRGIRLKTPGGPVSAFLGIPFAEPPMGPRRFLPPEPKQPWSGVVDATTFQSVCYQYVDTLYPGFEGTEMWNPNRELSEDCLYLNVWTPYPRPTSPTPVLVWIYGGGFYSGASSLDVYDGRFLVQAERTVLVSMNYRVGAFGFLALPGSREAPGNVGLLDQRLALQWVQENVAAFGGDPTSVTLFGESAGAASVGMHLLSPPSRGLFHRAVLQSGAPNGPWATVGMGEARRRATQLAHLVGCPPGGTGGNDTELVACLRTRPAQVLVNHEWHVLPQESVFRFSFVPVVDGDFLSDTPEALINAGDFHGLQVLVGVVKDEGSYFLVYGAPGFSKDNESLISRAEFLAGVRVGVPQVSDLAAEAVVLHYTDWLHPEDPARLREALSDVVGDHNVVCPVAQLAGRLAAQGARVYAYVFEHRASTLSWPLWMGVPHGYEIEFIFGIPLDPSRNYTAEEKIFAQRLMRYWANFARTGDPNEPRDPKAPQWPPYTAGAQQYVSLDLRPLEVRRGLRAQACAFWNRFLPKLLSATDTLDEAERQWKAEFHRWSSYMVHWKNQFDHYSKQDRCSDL

Row | Structure (SMILES) | IC50 (AChE) [µM] | Inhibition Rate (%) AChE (AChE) [%] | IC50 (BuChE) [µM] | Inhibition Rate (%) BuChE (BuChE) [%] | IC50 (MAO) [µM] | Inhibition Rate of MAO (%) (MAO) | Inhibition Rate (%) MAO–A (MAO–A) [%] | viability at 24 h (Cytotoxicity, MTT method) [%] | IC50 (MAO–B) [µM] | Inhibition Rate (%) MAO–B (MAO–B) [%] | Duration of Immobility (ICR male mice) [s] | DID (%) percentage decrease in immobility duration (ICR male mice) [%] | DID (%) percentage decrease in immobility duration (ICR male mice; listed as fluoxetine) [%]
1 | O=C(CN1CCc2ccccc2[C@H]1c1ccccc1)Nc1nc2ccc(F)cc2s1 [Compound 4m, (R)–N–(6–fluorobenzo[d]thiazol–2–yl)–2–(1–phenyl–3,4–dihydroisoquinolin–2(1H)–yl)acetamide] | > 150 | 2.76 | 50.3 ± 1.68 | 22.33 | > 150 | 9.76 |  |  |  |  |  |  | 
2 | O=C(CN1CCc2ccccc2[C@H]1c1ccccc1)Nc1nc2ccc(Br)cc2s1 [Compound 4f, (R)–N–(6–bromobenzo[d]thiazol–2–yl)–2–(1–phenyl–3,4–dihydroisoquinolin–2(1H)–yl)acetamide] | > 150 | 1.10 | > 150 | 32.32 | 41.8 ± 2.94 | 24.15 | 15.04 | > 90 | 47.6 ± 1.82 | 46.49 | 71.7 ± 4.9 | 59.83 | 
3 | O=C(CN1CCc2ccccc2[C@H]1c1ccccc1)Nc1nc2c(Cl)cccc2s1 [Compound 4a, (R)–N–(4–chlorobenzo[d]thiazol–2–yl)–2–(1–phenyl–3,4–dihydroisoquinolin–2(1H)–yl)acetamide] | > 150 | 6.08 | > 150 | 38.08 | > 150 | 14.93 |  |  |  |  |  |  | 
4 | O=C(CN1CCc2ccccc2[C@H]1c1ccccc1)Nc1nc2c(Br)cc(Br)cc2s1 [Compound 4p, (R)–N–(4,6–dibromobenzo[d]thiazol–2–yl)–2–(1–phenyl–3,4–dihydroisoquinolin–2(1H)–yl)acetamide] | > 150 | 6.63 | 27.1 ± 1.73 | 43.84 | 59.3 ± 3.22 | 19.80 |  |  |  |  |  |  | 
5 | COc1cccc2sc(NC(=O)CN3CCc4ccccc4[C@H]3c3ccccc3)nc12 [Compound 4j, (R)–N–(4–methoxybenzo[d]thiazol–2–yl)–2–(1–phenyl–3,4–dihydroisoquinolin–2(1H)–yl)acetamide] | > 150 | 12.71 | > 150 | 51.52 | > 150 | 5.70 |  |  |  |  |  |  | 
6 | O=C(CN1CCc2ccccc2[C@H]1c1ccccc1)Nc1nc2ccc([N+](=O)[O-])cc2s1 [Compound 4n, (R)–N–(6–nitrobenzo[d]thiazol–2–yl)–2–(1–phenyl–3,4–dihydroisoquinolin–2(1H)–yl)acetamide] | > 150 | 2.76 | 12.3 ± 3.76 | 20.31 | > 150 | 12.51 |  |  |  |  |  |  | 
7 | CNCCC(Oc1ccc(C(F)(F)F)cc1)c1ccccc1 (stereo not shown) [Fluoxetine, reference compound] |  |  |  |  |  |  |  |  |  |  | 31.7 ± 7.7 | 82.20 | 82.2
8 | COc1ccc2sc(NC(=O)CN3CCc4ccccc4[C@H]3c3ccccc3)nc2c1 [Compound 4k, (R)–N–(5–methoxybenzo[d]thiazol–2–yl)–2–(1–phenyl–3,4–dihydroisoquinolin–2(1H)–yl)acetamide] | > 150 | 3.31 | 10.2 ± 2.91 | 57.92 | 65.5 ± 3.51 | 17.75 |  |  |  |  |  |  | 
9 | COc1ccc2nc(NC(=O)CN3CCc4ccccc4[C@H]3c3ccccc3)sc2c1 [Compound 4l, (R)–N–(6–methoxybenzo[d]thiazol–2–yl)–2–(1–phenyl–3,4–dihydroisoquinolin–2(1H)–yl)acetamide] | > 150 | 3.31 | 3.86 ± 0.82 | 41.92 | 76.3 ± 2.94 | 11.34 |  |  |  |  |  |  | 
10 | C#CCN(C)Cc1ccccc1 [Pargyline, reference compound] |  |  |  |  |  |  |  |  |  | 93.47 |  |  | 
11 | O=C(CN1CCc2ccccc2[C@H]1c1ccccc1)Nc1nc2cc(Br)ccc2s1 [Compound 4e, (R)–N–(5–bromobenzo[d]thiazol–2–yl)–2–(1–phenyl–3,4–dihydroisoquinolin–2(1H)–yl)acetamide] | > 150 | 4.97 | 18.3 ± 2.68 | 68.80 | 128.1 ± 1.27 | 9.29 |  |  |  |  |  |  | 
12 | Cc1ccc2sc(NC(=O)CN3CCc4ccccc4[C@H]3c3ccccc3)nc2c1 [Compound 4h, (R)–N–(5–methylbenzo[d]thiazol–2–yl)–2–(1–phenyl–3,4–dihydroisoquinolin–2(1H)–yl)acetamide] | > 150 | 3.31 | 11.5 ± 3.22 | 37.44 | 76.4 ± 2.58 | 16.72 |  |  |  |  |  |  | 
13 | O=C(CN1CCc2ccccc2[C@H]1c1ccccc1)Nc1nc2c(Cl)cc(Cl)cc2s1 [Compound 4o, (R)–N–(4,6–dichlorobenzo[d]thiazol–2–yl)–2–(1–phenyl–3,4–dihydroisoquinolin–2(1H)–yl)acetamide] | > 150 | 3.87 | 21.8 ± 2.85 | 52.16 | 67.8 ± 1.26 | 10.19 |  |  |  |  |  |  | 
